Experimental data from patent publication US12612465B2, “Formulations comprising PCSK9 specific monoclonal antibodies” (Amgen Inc., priority 2012, dated 2026).

Target: PCSK9 (Homo sapiens, UniProt Q8NBP7)
Assay: 12 week monotherapy dose-ranging study, Framingham risk 10% or less (Example 24)
Assay type: in vivo
Parameters: endogenous in cells; host or cells: human subjects, in vivo
Protocol: Ezetimibe was not blinded. The end-of-study visit and the last estimation of lipids was at week 12 for subjects on Q4W IP schedule or on ezetimibe and week 14 for subjects on Q2W IP schedule.
Males and females, ≥18 to ≤75 years of age, were eligible for this study. Fasting LDL-C was ≥100 mg/dL (2.6 mmol/L) and ≤190 mg/dL (4.9 mmol/L) and fasting triglycerides ≤400 mg/dL (4.5 mmol/L) by central laboratory at screening.
The primary endpoint was the percent change from baseline in LDL-C at week 12. Secondary endpoints included percent changes in apolipoprotein B (ApoB), lipoprotein (a) (Lp(a)), and in the ratio of total cholesterol to high-density lipoprotein (HDL)-C. Tolerability and safety were also evaluated.

Chain of PCSK9 (Q8NBP7 153-692): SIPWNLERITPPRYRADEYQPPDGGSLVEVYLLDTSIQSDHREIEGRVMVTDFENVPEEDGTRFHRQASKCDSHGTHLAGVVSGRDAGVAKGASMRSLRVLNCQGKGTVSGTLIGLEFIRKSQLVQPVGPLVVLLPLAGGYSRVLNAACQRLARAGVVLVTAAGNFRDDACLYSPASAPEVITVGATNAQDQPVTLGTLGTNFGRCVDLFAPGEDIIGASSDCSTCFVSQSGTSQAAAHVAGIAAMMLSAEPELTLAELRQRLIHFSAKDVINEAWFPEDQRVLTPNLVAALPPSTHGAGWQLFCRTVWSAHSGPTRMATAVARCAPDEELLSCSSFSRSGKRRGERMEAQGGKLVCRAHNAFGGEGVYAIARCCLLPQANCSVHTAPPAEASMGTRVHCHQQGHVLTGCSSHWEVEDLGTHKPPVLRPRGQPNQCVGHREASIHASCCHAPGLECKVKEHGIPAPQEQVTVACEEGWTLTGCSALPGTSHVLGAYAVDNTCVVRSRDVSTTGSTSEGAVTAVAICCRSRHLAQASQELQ

O=C1[C@H](CC[C@H](O)c2ccc(F)cc2)[C@@H](c2ccc(O)cc2)N1c1ccc(F)cc1 [Ezetimibe, ezetimibe, reference compound]
Least squares mean percent change from baseline in LDL-C, week 12 (Ezetimibe QD (N = 45)): −14.26% | percent change from baseline in LDL-C (ezetimibe QD PO, week 12, final data): 14%
